Results as given in article doi:10.1101/2024.04.17.589937v1 (biorxiv, 2024).

Experiments:
[1] = target: T1, human mitochondrial RNA polymerase (POLRMT) (Homo sapiens, UniProt O00411); assay: single nucleotide incorporation rate assay; type: biochemical
DNA Pol α = DNA Pol α (Homo sapiens, UniProt P09884); assay: human DNA polymerase inhibition assay; type: biochemical
DNA Pol γ = DNA Pol γ (Homo sapiens, UniProt P54098); assay: human DNA polymerase inhibition assay; type: biochemical
[2] = target: T1, human mitochondrial RNA polymerase (POLRMT); assay: biochemical
[3] = system: Human metapneumovirus hMPV A1; assay: microbe, parasite or virus in culture; settings: LLC-MK2, read-out: hMPV A1 EC50 (µM)
[4] = system: Human rhinovirus A16 RV-A 16; assay: microbe, parasite or virus in culture; settings: H1-HeLa, read-out: RV EC50 (µM)
[5] = system: Human rhinovirus B14 RV-B 14; assay: microbe, parasite or virus in culture; settings: H1-HeLa, read-out: RV EC50 (µM)
EV-D68 [6] = assay: microbe, parasite or virus in culture; settings: Enterovirus D, EVD68, RD, read-out: EV EC50 (µM)
Enterovirus A71 EV-71 = assay: microbe, parasite or virus in culture; settings: Enterovirus A, EV71, RD, read-out: EV EC50 (µM)
[7] = system: Influenza A virus FluA H1N1; assay: microbe, parasite or virus in culture; settings: H1N1, MDCK, read-out: FluA H1N1 EC50 (µM)
[8] = system: Human rhinovirus A16 RV-A 16; settings: read-out: H1 HeLa CC50, h1 hela cells, 96 h
EV-D68 [9] = settings: read-out: RD CC50; human, rd cells
MDCK = settings: read-out: MDCK CC50, dog
LLC-MK2 = settings: monkey, llc-mk2 cells
in vitro = settings: human, a549-hace2 cells

T1 sequence (O00411 42-1230): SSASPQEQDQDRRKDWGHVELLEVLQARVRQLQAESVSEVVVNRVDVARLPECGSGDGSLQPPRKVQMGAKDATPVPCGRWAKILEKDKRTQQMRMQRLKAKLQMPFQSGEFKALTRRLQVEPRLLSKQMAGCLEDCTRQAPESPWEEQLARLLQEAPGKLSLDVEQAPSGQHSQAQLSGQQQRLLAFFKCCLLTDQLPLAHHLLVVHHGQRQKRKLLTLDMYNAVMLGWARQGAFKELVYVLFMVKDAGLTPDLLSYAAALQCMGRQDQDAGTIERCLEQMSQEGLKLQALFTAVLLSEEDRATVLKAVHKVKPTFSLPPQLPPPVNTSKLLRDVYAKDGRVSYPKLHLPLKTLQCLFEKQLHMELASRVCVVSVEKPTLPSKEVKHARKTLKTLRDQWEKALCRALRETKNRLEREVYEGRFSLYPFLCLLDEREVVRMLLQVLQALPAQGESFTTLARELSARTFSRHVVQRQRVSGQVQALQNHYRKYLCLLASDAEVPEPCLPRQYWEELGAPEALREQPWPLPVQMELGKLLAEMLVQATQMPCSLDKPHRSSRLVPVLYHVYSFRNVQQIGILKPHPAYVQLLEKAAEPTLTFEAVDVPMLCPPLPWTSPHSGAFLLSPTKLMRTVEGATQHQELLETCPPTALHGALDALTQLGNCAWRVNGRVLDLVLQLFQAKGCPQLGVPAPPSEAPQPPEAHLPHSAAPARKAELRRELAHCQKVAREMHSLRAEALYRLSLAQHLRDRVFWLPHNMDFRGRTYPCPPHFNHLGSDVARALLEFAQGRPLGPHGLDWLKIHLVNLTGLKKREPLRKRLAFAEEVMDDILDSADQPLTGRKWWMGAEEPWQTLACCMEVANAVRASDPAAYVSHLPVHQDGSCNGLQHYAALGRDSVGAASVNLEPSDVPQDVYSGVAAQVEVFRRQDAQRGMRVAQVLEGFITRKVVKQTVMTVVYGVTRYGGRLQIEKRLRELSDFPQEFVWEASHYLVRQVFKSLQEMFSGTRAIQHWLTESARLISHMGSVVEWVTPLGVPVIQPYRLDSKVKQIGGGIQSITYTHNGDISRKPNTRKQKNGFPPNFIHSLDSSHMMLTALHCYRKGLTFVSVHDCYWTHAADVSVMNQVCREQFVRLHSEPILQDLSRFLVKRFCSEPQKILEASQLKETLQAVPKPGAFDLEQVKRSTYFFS
DNA Pol α, sequence (P09884 whole entry): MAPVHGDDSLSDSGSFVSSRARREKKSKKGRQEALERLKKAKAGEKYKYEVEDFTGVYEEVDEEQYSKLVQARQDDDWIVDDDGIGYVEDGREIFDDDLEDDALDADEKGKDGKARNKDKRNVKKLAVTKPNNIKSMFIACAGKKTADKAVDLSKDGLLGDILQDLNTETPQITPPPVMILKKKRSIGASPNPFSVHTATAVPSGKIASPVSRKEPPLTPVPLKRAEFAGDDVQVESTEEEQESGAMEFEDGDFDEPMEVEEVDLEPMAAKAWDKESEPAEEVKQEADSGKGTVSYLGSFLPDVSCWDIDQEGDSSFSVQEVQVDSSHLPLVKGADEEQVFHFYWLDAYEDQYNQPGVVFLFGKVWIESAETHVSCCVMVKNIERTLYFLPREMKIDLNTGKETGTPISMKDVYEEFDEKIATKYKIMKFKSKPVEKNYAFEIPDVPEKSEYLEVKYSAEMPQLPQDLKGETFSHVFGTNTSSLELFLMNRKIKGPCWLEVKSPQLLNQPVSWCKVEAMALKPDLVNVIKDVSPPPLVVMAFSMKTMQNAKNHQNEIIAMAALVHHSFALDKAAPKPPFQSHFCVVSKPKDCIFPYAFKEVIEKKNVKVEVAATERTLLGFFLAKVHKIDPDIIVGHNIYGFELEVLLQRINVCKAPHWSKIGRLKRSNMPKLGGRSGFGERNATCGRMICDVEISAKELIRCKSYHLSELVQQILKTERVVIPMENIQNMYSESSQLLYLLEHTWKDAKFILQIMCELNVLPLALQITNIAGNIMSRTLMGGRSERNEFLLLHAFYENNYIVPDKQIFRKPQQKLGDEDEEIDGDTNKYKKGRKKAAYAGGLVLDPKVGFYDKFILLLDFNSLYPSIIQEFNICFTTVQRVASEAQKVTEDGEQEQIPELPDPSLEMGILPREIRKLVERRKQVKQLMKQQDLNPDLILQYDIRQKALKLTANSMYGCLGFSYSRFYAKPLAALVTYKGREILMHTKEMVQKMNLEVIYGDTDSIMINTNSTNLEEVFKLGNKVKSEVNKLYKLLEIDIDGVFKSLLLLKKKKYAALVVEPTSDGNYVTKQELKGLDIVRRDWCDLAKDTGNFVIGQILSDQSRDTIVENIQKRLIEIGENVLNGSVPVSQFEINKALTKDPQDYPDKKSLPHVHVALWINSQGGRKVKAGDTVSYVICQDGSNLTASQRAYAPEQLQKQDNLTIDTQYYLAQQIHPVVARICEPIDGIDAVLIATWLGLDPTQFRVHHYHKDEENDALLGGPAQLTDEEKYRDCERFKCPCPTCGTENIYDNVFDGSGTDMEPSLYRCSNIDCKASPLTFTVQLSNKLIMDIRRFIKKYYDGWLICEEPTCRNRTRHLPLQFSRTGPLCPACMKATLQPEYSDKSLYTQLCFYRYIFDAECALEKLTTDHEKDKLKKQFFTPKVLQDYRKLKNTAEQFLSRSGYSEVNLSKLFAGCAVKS
DNA Pol γ, sequence (Q9UHN1 26-485): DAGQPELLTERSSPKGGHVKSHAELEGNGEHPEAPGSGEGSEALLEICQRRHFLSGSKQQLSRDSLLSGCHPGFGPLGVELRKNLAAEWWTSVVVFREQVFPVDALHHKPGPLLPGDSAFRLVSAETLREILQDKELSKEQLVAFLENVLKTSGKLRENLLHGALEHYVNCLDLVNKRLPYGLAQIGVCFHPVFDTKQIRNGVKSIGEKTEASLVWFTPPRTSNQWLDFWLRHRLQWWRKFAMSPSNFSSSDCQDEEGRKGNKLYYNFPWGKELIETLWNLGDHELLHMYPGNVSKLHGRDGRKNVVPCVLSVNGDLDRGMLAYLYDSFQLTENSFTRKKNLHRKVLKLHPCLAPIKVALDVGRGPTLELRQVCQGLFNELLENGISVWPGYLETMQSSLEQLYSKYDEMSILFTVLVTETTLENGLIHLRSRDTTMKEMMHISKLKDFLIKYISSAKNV
DNA Pol γ, sequence (P54098 whole entry): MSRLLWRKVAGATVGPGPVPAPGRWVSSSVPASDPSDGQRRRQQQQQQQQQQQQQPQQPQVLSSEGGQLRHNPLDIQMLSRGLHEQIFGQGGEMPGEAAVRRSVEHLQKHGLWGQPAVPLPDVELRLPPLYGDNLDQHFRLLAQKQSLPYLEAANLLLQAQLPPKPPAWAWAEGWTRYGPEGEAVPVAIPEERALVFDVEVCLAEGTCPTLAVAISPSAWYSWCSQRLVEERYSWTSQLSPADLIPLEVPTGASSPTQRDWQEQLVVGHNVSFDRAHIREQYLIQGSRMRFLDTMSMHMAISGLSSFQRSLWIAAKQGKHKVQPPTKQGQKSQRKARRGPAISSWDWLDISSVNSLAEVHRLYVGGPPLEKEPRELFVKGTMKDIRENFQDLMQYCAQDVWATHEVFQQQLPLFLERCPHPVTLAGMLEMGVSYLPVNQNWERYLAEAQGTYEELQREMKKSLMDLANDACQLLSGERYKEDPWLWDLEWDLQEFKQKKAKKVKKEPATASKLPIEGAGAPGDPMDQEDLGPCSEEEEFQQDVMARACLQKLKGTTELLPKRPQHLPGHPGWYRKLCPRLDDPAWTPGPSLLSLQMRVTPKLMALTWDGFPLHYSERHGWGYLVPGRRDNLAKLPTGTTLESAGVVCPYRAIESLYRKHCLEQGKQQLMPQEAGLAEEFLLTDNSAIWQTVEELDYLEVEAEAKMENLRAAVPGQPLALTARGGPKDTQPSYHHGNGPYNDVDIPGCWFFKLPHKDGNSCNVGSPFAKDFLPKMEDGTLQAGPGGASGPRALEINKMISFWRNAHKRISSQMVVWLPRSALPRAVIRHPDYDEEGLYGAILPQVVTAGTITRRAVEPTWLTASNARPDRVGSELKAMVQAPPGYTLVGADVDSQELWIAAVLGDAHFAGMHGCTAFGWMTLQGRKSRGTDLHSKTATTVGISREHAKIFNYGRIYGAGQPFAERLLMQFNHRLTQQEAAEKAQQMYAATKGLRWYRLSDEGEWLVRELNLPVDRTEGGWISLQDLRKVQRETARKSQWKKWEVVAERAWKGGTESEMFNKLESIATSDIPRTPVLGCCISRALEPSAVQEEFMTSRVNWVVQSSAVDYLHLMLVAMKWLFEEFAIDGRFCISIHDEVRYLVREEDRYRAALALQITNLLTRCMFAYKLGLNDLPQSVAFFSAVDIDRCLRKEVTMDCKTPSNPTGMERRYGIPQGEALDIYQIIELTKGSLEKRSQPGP

**Q.** Which results are given for `N#C[C@]1(COP(=O)(O)OP(=O)(O)OP(=O)(O)O)O[C@@H](c2ccc3c(N)ncnn23)[C@H](O)[C@@H]1O` [2-NTP, ((2R,3S,4R,5S)-5-(4-Aminopyrrolo[2,1-f][1,2,4]triazin-7-yl)-2-cyano-3,4-dihydroxytetrahydrofuran-2-yl)methyl triphosphate]?
**A.** SNIR [1]: 0.8%; IC50 (DNA Pol α): > 200000 nM; IC50 (DNA Pol γ): > 200000 nM; IC50 [2]: > 200000 nM

**Q.** For `COC(=O)[C@H](C)N[P@](=O)(OC[C@@]1(C#N)O[C@@H](c2ccc3c(N)ncnn23)[C@H](OC(=O)C(C)C)[C@@H]1OC(=O)C(C)C)Oc1ccccc1` [compound 1, GS-7682], which EC50 [3] is on record?
**A.** The EC50 was 0.21 ± 0.05 µM.

**Q.** And the EC50 [4]?
**A.** The EC50 was 0.061 ± 0.006 µM.

**Q.** What about the EC50 [5] of the same compound?
**A.** The EC50 was 0.054 ± 0.002 µM.

**Q.** What about the EC50 (EV-D68 [6]) of the same compound?
**A.** The EC50 was 0.09 ± 0.06 µM.

**Q.** And the EC50 (Enterovirus A71 EV-71)?
**A.** The EC50 was 0.083 ± 0.035 µM.

**Q.** And the EC50 [7]?
**A.** The EC50 was greater than 2 µM.

**Q.** What about the CC50 [8] of the same compound?
**A.** Its CC50 is 22200 ± 6300 nM.

**Q.** What about the CC50 (EV-D68 [9]) of the same compound?
**A.** The CC50 was greater than 2000 nM.

**Q.** And the CC50 (MDCK)?
**A.** The CC50 was greater than 2000 nM.

**Q.** And the CC50 (LLC-MK2)?
**A.** Its CC50 is greater than 2000 nM.

**Q.** And the CC50 at 28 h (in vitro)?
**A.** The CC50 at 28 h was 21100 ± 4400 nM.
